Consider four compounds from publication PMC11997985, “Synthesis and In Vitro Profiling of Psilocin Derivatives: Improved Stability and Synthetic Properties” (Journal of Medicinal Chemistry, 2025).

“And” between values parts separate entries of the source, which are not always exact repeats. Identical values can stand only once. Marks after values point to notes of the source that are not given here.

For one series, the system named is porcine liver esterase. The experiment in a line: Stability in FaSSIF supplemented with esterase. The note with it: for % prodrug remaining, measured after 1 min: after 1 min at 20 IU/mL; for predicted half-life: at 270 IU/mL; for predicted abs.: calculated remaining prodrug available for GI absorption, predicted level after 5 min at 270 IU/mL (% remaining prodrug); for half-life at 0.292 mM: pig, FaSSIF supplemented with porcine liver esterase (20 IU/mL).

The nature of series [1]: Metabolic stability in human microsomes. Type of series: in vitro ADME. The note with it: for Metabolic stability in human microsomes: 37 °C, 0.5 mg/mL protein, 1 μM compound, 1 mM NADPH; for Comment on microsome assay: Table S3.
A short description of series [2]: Stability in simulated stomach acid (0.10 M HCl). The note with it: 0.10 M HCl (simulated stomach acid).
Series [3] in a line: Co-factor experiment: microsome suspension with and without NADPH. Type of series: in vitro ADME, human. Conditions: for Co-factor experiment: degradation with and without addition of NADPH compared. On the procedure: Therefore, additional experiments comparing stability with and without the addition of NADPH cofactor and a very short incubation period were performed (Tables S4 and S5). […] Due to the rapid observed degradation in microsomes, we decided to investigate the stability of five compounds in human plasma, aiming for a broad range of stabilities (Table 2, Table S6). It should be noted that esterase-labile compounds are notoriously difficult to study in microsomal stability studies.[36]
Table S3 Evaluation of metabolic stability in human microsomes
No. Metabolic stability Comment
4k <10/<10 Low retention in chromatography
8 <10/<10 Low retention in chromatography.
Table S4 Results from the modified microsome assay where degradation with and without the addition of NADPH was compared […]
4d Very low peak area for the first time point,
4e Very low peak area for the first time point,
4f Very low peak area for the first time point,
5 Very low peak area for the first time point,
8 No degradation without co -factor […]
metabolism by the microsomes (consisting mainly of cytochrome P450 enzymes) or if it was due to other factors, the compounds (with the exception of 4k) were incubated in the microsome suspension both with and without the addition of NADPH. Samples […]
(§1) were taken at three timepoints, and the degradation was compared to determine if it was dependent on NADPH. Compound 4k […]
(§2) without the addition of NADPH. […]
(§3) microsomes that need to be activated by a co -factor.
(§4) Table S5 Percent of peak area found in microsome suspension 15 seconds after the addition of NADPH in comparison with the same amount dissolved in H2O/EtOH
(§5) No. Area at 0.25 min. in Area in solution % found in microsomes/NADPH (125 nM) microsome
(§6) Comparison with compounds in solution. A comparison was made between the peak area of the compounds in solution with that obtained in the microsome suspension directly after the addition of NADPH (about 0.25 minutes) (Table S5). Before the addition of NADPH, the compounds are equilibrated in the microsome suspension for approximately five minutes. All compounds were prepared in solution by diluting a portion of the DMSO solutions with H2O/EtOH (75:25) to 125 nM (the final concentration of compounds for analysis in the microsome assay).
(§7) For the compounds where no results from the microsome assay could be reported due to low peak area (4d, 4e, 4f & 5), less than one percent of the expected peak area as compared with the area in solution was detected. […]
(§8) degrade rapidly before the addition of the co-factor after five minutes in incubation. For compounds 4g, 4h, 4i & 4j, which were […]
(§9) higher relative peak areas were found. […]
(§10) without NADPH was only found at 15% of the area seen in solution in the microsome suspension.

A short description of series [4]: Chemical stability in 1.0 M NaHCO3 and 1.0 M HCl.
A short description of series [5]: Peak area in microsome suspension compared with compounds in solution. The note with it: peak area 15 seconds after addition of NADPH versus same amount (125 nM) in H2O/EtOH. Type of series: in vitro ADME, human. On the procedure: as §1, §2, §3, §4, §5, §6, §7, §8, §9, §10

What is called half-life is the time in which the quantity being followed falls by half. `COC(=O)Oc1cccc2[nH]cc(CCN(C)C)c12.O=C(O)/C=C/C(=O)O` [Compound 4e]: in the series with porcine liver esterase, the “% prodrug remaining, measured after 1 min” value came to 60%; the predicted half-life is 6 s; the predicted abs. is on record as 4.1 × 10^–13; the half-life at 0.292 mM was found to be 84.6 ± 19.2 s. Also, the “% prodrug remaining, no esterase 30 min” value in the series with porcine liver esterase (after 30 min with no esterase) is recorded as 100%. Also, in series [1], the “Metabolic stability in human microsomes” value was >200^a μL/min/mg protein and >200 μL/min/mg protein; the “Comment on microsome assay” value is “Rapid degradation”. In addition, in series [2], the half-life at 5 mM was more than 167 h. The Co-factor experiment entry in series [3] was “Very low peak area for the first time point, instability suspected”. In series [4] (1.0 M HCl), this compound came in with a half-life at 24 h, 5 mM of 150 h. For the same compound, the half-life at 24 h, 5 mM in series [4] (1.0 M NaHCO3) is 16.7 h.

For `CN(C)CCc1c[nH]c2cccc(OC(=O)OCc3ccccc3)c12.O=C(O)/C=C/C(=O)O.O=CO` [Compound 4f], in the series on porcine liver esterase, the “% prodrug remaining, measured after 1 min” value is on record as 21%; the predicted half-life was 1.8 s; the predicted abs. is 6.6 × 10^–45; the half-life at 0.292 mM was 26.4 ± 2.4 s. Moreover, in series [1], the “Metabolic stability in human microsomes” value was >200^a μL/min/mg protein and >200 μL/min/mg protein; the “Comment on microsome assay” value was “Rapid degradation”. The half-life at 5 mM in series [2] is more than 167 h. Moreover, the Co-factor experiment entry in series [3] is “Very low peak area for the first time point, instability suspected”. In series [4] (1.0 M HCl), this compound had a half-life at 24 h, 5 mM of 100 h. Moreover, in series [4] (1.0 M NaHCO3), the half-life at 24 h, 5 mM came to 11.7 h.

In the case of `CCCCCCCCCCC(=O)Oc1cccc2[nH]cc(CCN(C)C)c12.O=C(O)/C=C/C(=O)O` [Compound 4j], in series [5], the “% found in microsome suspension” value is reported as 45%. Besides, in series [1], the “Metabolic stability in human microsomes” value was >200^a μL/min/mg protein and >200 μL/min/mg protein; the “Comment on microsome assay” value was “Rapid degradation”. This compound returned a half-life at 5 mM in series [2] of more than 167 h. Also, the Co-factor experiment entry in series [3] is given as “Degradation without co-factor”. Moreover, the microsomal CLint in series [3] (human, human microsome suspension, both with and without the addition of NADPH, read-out: intrinsic clearance) was more than 200 µL/min/mg. In series [4] (1.0 M HCl), this compound had a half-life at 24 h, 5 mM of 21.7 h. In addition, the half-life at 24 h, 5 mM in series [4] (1.0 M NaHCO3) is 16.7 h.

On to `CN(C)CCc1c[nH]c2cccc(OB(O)O)c12.O=C(O)/C=C/C(=O)O` [Compound 5], for which the “Metabolic stability in human microsomes” value in series [1] is >200^a μL/min/mg protein and >200 μL/min/mg protein. For the same compound, in series [1], the “Comment on microsome assay” value is listed as “Rapid degradation”. Moreover, the half-life at 5 mM was less than 0.0833 h in series [2], less than 5 min in series [4] (1.0 M HCl) and less than 5 min in series [4] (1.0 M NaHCO3). Moreover, in series [3], the Co-factor experiment entry is “Very low peak area for the first time point, instability suspected”.
